Results from ChEMBL document CHEMBL1201862, “PubChem BioAssay data set” (2004).
Calls of active or inactive are those of the source.

How the values were obtained:
[1] = target: T1, Beta-2 adrenergic receptor (Homo sapiens, UniProt P07550); assay: Dose response for HTS for Beta-2AR agonists via FAP method from Powderset3.; type: functional
[2] = target: T1, Beta-2 adrenergic receptor; assay: ADRB2 activation measured by internalization – cell-based, FAP fluorogen, flow cytometry, cherry pick 1, dose response (AID 588763); type: functional
Beta-lactamase [3] = target: Beta-lactamase (Salmonella choleraesuis (strain SC-B67), UniProt Q5J463)
Sequence of Beta-lactamase (Salmonella choleraesuis (strain SC-B67), UniProt Q5J463) (Q5J463 whole entry): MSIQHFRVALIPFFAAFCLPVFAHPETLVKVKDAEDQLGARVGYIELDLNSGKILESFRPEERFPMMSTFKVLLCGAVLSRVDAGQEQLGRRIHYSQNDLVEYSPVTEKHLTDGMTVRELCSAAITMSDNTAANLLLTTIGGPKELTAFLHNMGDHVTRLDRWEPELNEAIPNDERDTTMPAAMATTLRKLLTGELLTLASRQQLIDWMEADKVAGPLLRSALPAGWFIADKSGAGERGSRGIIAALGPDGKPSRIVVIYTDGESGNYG

Beta-lactamase [4] = target: Beta-lactamase (Pseudomonas aeruginosa, UniProt Q79MP6);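 also: biochemical dose-response test of metallo-beta-lactamase enzyme inhibition, read out by epi-absorbance; purified recombinant IMP-1 metallo-beta-lactamase with nitrocefin as substrate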
Sequence of Beta-lactamase (Pseudomonas aeruginosa, UniProt Q79MP6) (Q79MP6 whole entry): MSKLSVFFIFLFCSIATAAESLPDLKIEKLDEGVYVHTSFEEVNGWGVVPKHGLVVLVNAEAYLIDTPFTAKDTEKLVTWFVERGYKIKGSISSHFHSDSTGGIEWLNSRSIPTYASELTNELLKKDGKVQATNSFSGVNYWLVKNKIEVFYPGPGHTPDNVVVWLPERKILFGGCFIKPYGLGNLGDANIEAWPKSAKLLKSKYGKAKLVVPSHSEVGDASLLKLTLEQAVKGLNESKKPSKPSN

HEK293 [5] = assay: cells; type: functional, cell-based; details: Homo sapiens
[6] = target: Nucleotide-binding oligomerization domain-containing protein 2 (Homo sapiens, UniProt Q9HC29); assay: inhibition of NOD2-driven NF-kB reporter – cell-based, luminescence, uHTS, HEK293 (AID 1566); type: functional
Sequence of Nucleotide-binding oligomerization domain-containing protein 2 (Q9HC29 whole entry, the tested form may be a part): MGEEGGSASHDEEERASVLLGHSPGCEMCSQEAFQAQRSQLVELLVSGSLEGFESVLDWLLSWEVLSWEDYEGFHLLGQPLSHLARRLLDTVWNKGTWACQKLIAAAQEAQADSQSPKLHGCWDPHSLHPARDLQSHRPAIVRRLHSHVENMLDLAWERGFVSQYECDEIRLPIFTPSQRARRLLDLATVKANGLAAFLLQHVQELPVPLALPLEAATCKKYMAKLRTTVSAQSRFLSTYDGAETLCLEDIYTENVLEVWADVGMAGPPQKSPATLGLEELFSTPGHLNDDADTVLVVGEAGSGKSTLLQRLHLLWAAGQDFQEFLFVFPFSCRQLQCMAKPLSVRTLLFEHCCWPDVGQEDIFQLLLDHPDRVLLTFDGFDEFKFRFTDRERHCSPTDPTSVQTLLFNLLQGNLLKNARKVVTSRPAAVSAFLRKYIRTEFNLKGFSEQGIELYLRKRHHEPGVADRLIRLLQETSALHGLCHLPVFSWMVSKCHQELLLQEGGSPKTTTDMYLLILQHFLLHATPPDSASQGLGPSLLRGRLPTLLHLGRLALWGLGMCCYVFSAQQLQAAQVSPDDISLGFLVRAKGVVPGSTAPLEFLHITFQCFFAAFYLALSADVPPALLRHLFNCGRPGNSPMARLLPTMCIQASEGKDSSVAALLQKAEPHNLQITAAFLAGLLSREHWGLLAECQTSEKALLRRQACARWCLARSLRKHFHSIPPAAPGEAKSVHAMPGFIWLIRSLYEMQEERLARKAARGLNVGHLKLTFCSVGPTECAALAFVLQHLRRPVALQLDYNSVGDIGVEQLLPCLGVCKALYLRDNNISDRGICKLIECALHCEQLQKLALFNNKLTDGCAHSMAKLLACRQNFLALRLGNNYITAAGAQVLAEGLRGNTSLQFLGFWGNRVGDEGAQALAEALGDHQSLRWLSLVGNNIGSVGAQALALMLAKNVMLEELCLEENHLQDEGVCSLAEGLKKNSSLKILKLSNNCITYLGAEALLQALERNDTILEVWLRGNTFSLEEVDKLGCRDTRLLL

[7] = loss of viability in HepG2 cells – cell-based, CellTiter-Glo, cherry-picked, cytotoxicity control for Shn3 inhibitor project, dose response (AID 624134); type: functional
HEK293 [8] = assay: NOD2 signaling inhibitors in MDP-stimulated cells, cell-based, uHTS, luminescence (AID 2001); type: functional; details: Homo sapiens
Prothrombin = Prothrombin (Bos taurus, UniProt P00735); assay: thrombin protease inhibitors – biochemical, fluorescence polarization, uHTS hits, dose response (AID 602369); type: functional
[9] = non-specific 3'UTR reporter inhibition in Clone20-Shn3RL – cell-based, Renilla luciferase, cherry-picked, counter-screen for Shn3 inhibitor project, dose response (AID 624133); type: functional
HEK293 [10] = assay: inhibition of NOD1-driven NF-kB reporter – cell-based, luminescence, uHTS, primary screen (AID 1578); type: functional; details: Homo sapiens
HEK293 [11] = assay: cells; details: Homo sapiens
[12] = target: 26S proteasome non-ATPase regulatory subunit 14 (Homo sapiens, UniProt O00487); assay: inhibition of proteasome subunit RPN11 – biochemical, fluorescence polarization, uHTS hits, confirmation (AID 602368); type: functional
HEK293 [13] = assay: EBV LMP1 TES2 canonical NF-kB signalling blockers – cell-based, HEK293, luciferase, cherry-pick, dose response (AID 588343); type: functional; details: Homo sapiens
INS1 = assay: INS-1E survival protection against cytokine death – cell-based, luminescence, retest, dose response (AID 449756); type: functional; details: Rattus norvegicus;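 also: cell death triggered by IL-1 beta plus TNF-alpha plus IFN-gamma mixture; protective hits raise ATP signal compared with cytokine alone wells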
HEK293 [14] = assay: cells; type: functional, cell-based; details: Homo sapiens; remark: listed apart in the source
HEK293 [15] = assay: cells; type: functional, cell-based; details: Homo sapiens; remark: listed apart in the source
[16] = reduction of Shn3 3'UTR-driven luciferase in osteoblasts – cell-based, Clone20 osteoblasts, firefly luciferase, cherry-picked, dose response (AID 624132); type: functional;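 also: firefly luciferase luminescence from reporter carrying the Shn3 3'UTR in osteoblasts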
[17] = target: T2, Nucleotide-binding oligomerization domain-containing protein 1 (Homo sapiens, UniProt Q9Y239); assay: blockers of NOD1 pathway activity – revised, SAR follow-up (AID 2333); type: functional
T2 sequence (Q9Y239 whole entry): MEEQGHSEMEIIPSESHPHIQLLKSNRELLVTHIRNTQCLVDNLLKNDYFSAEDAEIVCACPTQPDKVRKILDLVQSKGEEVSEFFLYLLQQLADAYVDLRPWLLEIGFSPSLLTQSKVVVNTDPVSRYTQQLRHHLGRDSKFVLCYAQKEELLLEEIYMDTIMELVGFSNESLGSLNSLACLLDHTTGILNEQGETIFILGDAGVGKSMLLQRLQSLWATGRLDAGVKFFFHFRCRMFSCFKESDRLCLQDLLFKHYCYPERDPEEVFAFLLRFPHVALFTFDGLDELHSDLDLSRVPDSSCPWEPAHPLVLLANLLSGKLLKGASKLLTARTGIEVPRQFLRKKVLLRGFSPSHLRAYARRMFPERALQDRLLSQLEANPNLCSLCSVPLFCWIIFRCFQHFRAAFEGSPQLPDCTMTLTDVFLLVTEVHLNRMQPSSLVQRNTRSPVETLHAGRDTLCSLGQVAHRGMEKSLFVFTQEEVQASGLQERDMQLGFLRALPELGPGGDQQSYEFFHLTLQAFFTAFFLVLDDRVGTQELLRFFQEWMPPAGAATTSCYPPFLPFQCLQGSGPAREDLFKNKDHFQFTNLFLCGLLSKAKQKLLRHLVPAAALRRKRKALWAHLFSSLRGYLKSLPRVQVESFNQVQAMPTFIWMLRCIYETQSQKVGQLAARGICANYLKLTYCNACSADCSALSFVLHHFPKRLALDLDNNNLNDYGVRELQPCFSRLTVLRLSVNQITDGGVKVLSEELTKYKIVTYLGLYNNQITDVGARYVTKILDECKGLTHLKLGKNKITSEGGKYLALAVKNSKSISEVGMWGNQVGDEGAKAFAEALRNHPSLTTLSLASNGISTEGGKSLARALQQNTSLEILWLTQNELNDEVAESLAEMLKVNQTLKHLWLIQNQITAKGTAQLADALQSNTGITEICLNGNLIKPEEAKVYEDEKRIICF

Tumor necrosis factor = Tumor necrosis factor (Homo sapiens, UniProt P01375); assay: analog potency on TNFa NF-kB signaling – cell-based, revised, SAR follow-up (AID 2337); type: functional
[18] = target: 72 kDa type IV collagenase (Homo sapiens, UniProt P08253); assay: Dose Response validation of uHTS RPN11 inhibitor hits using a MMP-2 Fluorescence assay.; type: functional
Sequence of 72 kDa type IV collagenase (P08253 whole entry): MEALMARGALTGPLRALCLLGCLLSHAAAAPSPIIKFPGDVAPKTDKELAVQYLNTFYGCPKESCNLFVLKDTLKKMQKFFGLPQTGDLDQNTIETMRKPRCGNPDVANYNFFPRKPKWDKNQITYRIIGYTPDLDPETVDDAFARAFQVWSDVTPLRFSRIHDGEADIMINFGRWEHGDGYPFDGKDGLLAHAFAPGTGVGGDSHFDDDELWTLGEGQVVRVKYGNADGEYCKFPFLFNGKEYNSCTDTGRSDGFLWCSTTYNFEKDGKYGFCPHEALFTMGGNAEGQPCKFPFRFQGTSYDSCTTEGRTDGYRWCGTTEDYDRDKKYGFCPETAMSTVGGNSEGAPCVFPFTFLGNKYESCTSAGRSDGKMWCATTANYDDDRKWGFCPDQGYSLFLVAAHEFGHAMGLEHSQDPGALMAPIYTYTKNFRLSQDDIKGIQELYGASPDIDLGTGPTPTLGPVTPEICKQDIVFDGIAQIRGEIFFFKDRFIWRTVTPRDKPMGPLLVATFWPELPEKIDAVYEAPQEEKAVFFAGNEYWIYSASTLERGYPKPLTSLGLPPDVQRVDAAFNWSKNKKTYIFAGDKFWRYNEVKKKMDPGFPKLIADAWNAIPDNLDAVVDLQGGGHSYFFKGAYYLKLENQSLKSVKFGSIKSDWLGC

[19] = target: T3, Sentrin-specific protease 8 (Homo sapiens, UniProt Q96LD8); type: functional
T3 sequence (Q96LD8 whole entry): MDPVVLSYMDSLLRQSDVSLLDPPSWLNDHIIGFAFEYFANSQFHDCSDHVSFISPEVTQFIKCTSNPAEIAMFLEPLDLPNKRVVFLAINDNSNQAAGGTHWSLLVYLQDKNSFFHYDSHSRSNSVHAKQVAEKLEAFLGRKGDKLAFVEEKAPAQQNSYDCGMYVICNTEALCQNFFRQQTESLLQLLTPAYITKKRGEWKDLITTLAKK

[20] = target: T3, Sentrin-specific protease 8; type: functional; remark: listed apart in the source
[21] = viability loss in HEK293T cells – cell-based, cherry-picks, cytotoxicity control for HIV Vif inhibitor project, dose response (AID 652208); type: functional
[22] = target: T4, Apoptotic protease-activating factor 1 (Homo sapiens, UniProt O14727); assay: SAR analysis of small molecule Activators of Apaf-1 in a Fluorescent assay.; type: functional; details: read-out: EC50_Mean;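 also: caspase-3 cleavage of fluorogenic Rh110 DEVD substrate downstream of apoptosome activation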
T4 sequence (O14727 whole entry): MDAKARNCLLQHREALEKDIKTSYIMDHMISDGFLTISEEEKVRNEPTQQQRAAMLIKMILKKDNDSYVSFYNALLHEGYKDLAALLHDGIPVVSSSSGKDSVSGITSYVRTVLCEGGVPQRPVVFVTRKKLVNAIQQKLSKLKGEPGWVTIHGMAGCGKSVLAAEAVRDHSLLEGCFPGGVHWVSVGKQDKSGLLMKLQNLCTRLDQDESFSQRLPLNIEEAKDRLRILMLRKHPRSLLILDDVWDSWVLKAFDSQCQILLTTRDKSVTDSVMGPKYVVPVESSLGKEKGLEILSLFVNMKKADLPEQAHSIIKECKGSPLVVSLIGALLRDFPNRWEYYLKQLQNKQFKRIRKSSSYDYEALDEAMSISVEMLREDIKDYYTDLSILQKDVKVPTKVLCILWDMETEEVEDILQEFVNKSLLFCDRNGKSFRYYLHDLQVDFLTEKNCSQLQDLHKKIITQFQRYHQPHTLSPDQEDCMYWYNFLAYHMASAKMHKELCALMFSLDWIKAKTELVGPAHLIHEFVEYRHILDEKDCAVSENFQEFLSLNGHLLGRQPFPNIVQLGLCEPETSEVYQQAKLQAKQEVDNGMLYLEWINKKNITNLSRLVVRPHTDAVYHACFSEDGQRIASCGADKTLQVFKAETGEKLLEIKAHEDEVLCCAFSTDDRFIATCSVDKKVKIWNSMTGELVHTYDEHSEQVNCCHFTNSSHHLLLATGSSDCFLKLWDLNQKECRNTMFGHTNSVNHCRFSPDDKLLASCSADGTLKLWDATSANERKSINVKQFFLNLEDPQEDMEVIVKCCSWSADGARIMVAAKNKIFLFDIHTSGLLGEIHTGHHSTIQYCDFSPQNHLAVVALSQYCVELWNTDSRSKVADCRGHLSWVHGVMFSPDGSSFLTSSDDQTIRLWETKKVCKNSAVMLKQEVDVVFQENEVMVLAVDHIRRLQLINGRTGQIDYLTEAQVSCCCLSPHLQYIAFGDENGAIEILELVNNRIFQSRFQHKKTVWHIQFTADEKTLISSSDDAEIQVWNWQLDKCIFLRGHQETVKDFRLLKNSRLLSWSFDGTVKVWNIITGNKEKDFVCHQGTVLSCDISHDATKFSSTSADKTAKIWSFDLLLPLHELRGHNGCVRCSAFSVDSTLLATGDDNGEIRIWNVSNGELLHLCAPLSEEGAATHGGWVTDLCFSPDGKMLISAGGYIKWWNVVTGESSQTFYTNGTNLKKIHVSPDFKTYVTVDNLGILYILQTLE

[23] = target: Cyclin-dependent kinase 19 (Homo sapiens, UniProt Q9BWU1); assay: Navigating the Kinome. Panel member name: CDC2L6; type: functional
[24] = target: ALK tyrosine kinase receptor (Homo sapiens, UniProt Q9UM73); type: functional;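 also: ALK tested as one member of a kinase panel screen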
Sequence of ALK tyrosine kinase receptor (Q9UM73 whole entry): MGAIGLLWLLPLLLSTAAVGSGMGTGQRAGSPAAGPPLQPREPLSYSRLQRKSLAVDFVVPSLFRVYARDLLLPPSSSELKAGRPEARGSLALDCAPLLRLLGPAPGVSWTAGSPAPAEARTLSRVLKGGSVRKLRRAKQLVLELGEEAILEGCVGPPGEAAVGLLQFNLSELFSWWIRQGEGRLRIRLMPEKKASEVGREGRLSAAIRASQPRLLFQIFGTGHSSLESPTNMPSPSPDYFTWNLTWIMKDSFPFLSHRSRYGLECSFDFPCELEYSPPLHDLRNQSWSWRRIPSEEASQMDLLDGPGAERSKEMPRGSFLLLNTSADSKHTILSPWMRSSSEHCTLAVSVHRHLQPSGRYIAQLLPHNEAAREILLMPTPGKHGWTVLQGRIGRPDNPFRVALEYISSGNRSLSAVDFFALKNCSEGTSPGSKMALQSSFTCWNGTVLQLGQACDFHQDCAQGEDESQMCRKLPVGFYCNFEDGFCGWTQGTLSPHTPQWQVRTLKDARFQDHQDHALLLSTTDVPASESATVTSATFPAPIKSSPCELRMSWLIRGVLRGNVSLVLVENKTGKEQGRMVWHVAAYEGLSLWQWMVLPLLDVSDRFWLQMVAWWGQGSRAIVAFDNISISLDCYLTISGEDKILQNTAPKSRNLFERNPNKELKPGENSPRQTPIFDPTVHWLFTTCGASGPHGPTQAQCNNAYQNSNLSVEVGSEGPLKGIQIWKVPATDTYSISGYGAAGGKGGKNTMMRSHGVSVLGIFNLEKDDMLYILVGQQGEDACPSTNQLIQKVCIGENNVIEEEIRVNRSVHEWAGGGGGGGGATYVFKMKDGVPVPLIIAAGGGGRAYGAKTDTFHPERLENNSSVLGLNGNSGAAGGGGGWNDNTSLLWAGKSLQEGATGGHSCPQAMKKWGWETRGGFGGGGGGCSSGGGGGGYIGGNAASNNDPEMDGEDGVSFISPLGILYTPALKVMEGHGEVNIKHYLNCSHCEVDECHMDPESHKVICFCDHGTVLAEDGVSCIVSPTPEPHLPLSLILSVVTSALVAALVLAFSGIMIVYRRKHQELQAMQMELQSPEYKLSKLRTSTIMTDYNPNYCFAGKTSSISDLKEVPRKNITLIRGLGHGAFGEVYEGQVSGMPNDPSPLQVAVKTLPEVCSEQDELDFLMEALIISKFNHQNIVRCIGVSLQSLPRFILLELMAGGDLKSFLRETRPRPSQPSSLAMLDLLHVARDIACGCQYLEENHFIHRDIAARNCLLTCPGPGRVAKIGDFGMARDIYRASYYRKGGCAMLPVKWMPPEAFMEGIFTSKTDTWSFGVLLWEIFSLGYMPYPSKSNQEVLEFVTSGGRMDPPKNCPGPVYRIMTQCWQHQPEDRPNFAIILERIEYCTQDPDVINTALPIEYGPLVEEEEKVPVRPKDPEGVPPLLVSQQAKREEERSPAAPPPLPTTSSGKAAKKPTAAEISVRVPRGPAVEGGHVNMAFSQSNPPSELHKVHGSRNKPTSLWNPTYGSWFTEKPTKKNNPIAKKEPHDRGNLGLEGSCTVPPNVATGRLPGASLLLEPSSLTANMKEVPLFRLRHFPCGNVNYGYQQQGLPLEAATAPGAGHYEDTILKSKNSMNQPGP

[25] = target: Adenosylmethionine-8-amino-7-oxononanoate aminotransferase (Mycobacterium tuberculosis, UniProt P9WQ81); assay: Mycobacterium tuberculosis BioA enzyme inhibitor Measured in Biochemical System Using Plate Reader - 2163-02_Inhibitor_Dose_CherryPick_Activity.; type: functional, Mycobacterium tuberculosis UT205
[26] = inhibitors of EBV LMP1 NF-kappaB signaling – cell-based, luciferase reporter, luminescence, dry powder, set 2, dose response (AID 624376); type: functional
[27] = target: Tyrosine-protein phosphatase non-receptor type 11 (Homo sapiens, UniProt Q06124); assay: PTPN11 enzyme inhibitors – biochemical, selectivity assay for STEP inhibitor project, dose response (AID 602367); type: functional; details: read-out: IC50_Mean
Sequence of Tyrosine-protein phosphatase non-receptor type 11 (Q06124 whole entry): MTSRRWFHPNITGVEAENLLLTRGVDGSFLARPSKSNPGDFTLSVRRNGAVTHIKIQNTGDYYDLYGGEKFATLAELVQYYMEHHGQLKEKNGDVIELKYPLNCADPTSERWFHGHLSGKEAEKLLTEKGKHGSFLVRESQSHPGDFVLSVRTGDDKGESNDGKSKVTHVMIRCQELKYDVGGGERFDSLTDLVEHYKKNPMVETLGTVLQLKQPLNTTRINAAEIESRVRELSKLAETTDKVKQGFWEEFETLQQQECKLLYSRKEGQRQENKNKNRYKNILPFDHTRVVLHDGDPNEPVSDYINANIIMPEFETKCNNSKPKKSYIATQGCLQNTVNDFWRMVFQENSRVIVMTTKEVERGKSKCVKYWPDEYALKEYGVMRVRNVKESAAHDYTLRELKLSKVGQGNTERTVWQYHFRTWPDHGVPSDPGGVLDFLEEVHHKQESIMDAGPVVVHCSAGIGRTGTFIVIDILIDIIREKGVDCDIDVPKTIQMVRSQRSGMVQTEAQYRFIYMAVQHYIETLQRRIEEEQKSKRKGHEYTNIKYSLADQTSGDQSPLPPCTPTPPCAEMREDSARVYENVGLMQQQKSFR

[28] = target: T5, Trace amine-associated receptor 1 (Homo sapiens, UniProt Q96RJ0); assay: Fluorescence-based cell-based high throughput dose response assay to identify agonists of the human trace amine associated receptor 1 (TAAR1).; type: functional
T5 sequence (Q96RJ0 whole entry): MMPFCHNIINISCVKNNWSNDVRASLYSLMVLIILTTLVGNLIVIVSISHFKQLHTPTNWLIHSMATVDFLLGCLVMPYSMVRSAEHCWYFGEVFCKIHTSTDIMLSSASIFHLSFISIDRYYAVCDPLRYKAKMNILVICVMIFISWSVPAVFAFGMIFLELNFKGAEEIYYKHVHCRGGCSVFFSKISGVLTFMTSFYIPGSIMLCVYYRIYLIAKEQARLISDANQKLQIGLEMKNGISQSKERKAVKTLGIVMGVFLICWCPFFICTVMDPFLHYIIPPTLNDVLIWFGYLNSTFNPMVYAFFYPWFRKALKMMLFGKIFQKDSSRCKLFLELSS

[29] = target: T5, Trace amine-associated receptor 1; assay: Counterscreen for agonists of the human trace amine associated receptor 1 (hTAAR1): Fluorescence-based cell-based high throughput dose response assay to identify hTAAR1 agonist that also desensitize TAAR1 receptor response.; type: functional
[30] = target: Tyrosine-protein phosphatase non-receptor type 5 (Homo sapiens, UniProt P54829); assay: PTPN5 enzyme inhibition – biochemical, fluorescence intensity, uHTS hits, confirmation (AID 602372); type: functional; details: read-out: IC50_Mean
cells [31] = type: functional, cell-based
cells [32] = type: functional, cell-based; remark: listed apart in the source
[33] = target: Dual specificity protein phosphatase 3 (Homo sapiens, UniProt P51452); assay: VHR phosphatase inhibition, dose response, selectivity assay for STEP inhibitor project, biochemical (AID 602374); type: functional; details: read-out: IC50_Mean
Sequence of Dual specificity protein phosphatase 3 (P51452 whole entry): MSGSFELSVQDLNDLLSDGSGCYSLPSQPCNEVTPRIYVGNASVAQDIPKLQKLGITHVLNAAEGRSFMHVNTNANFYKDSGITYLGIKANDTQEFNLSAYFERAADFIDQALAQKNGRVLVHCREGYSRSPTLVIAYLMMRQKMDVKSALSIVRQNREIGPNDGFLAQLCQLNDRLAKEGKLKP

T1 sequence (P07550 whole entry): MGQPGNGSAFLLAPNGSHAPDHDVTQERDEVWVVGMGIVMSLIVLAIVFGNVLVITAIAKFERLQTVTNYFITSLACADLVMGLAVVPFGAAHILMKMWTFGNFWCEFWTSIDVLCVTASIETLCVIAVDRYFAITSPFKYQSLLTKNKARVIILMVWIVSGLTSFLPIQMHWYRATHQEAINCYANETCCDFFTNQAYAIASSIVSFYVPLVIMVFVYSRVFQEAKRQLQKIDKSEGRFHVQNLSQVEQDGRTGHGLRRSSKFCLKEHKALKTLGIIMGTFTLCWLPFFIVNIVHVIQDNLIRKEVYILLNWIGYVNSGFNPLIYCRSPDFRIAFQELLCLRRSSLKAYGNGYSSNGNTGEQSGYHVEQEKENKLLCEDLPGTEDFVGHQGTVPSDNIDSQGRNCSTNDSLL

CC(=O)Nc1ccc(S(=O)(=O)N2CCC(Oc3ccc(-n4cnnn4)cc3)CC2)cc1
EC50 [1]: 0.0366 µM (active) | EC50 [2]: 0.126 µM (active)

CC(=O)Nc1ccc(N2C(=O)c3cccc4c(O)ccc(c34)C2=O)cc1
IC50 (Beta-lactamase [3]): 7 µM (active) | IC50 (Beta-lactamase [4]): 13.7 µM (inactive)

Cc1ccc(NC(=O)C2CCN(S(=O)(=O)c3ccc4c(c3)NC(=O)C(C)S4)CC2)cc1Cl (stereo unspecified)
IC50 (HEK293 [5]): 2.72 µM (active) | EC50 [6]: 8.36 µM (active) | AC50 [7]: 6.82 µM (active) | IC50 (HEK293 [8]): 2.94 µM (inactive) | IC50 (Prothrombin): 46 µM (active) | AC50 [9]: 2.48 µM (active) | EC50 (HEK293 [10]): 5.35 µM (active) | IC50 (HEK293 [11]): 5.08 µM (active) | IC50 [12]: 49.4 µM (active) | AC50 (HEK293 [13]): 15.3 µM (active) | AC50 (INS1): 3.7 µM (active) | IC50 (HEK293 [14]): 4.25 µM (active) | IC50 (HEK293 [15]): > 20 µM (inactive) | AC50 [16]: 2.83 µM (active) | IC50 [17]: 2.87 µM (active) | IC50 (Tumor necrosis factor): 2.84 µM (active) | IC50 [18]: > 100 µM (inactive)

O=C(COC(=O)c1ccc([N+](=O)[O-])o1)NCc1ccc2c(c1)OCO2
IC50 [19]: 5.11 µM (active) | IC50 [20]: 11.1 µM (active)

COc1ccc(S(=O)(=O)Nc2cccc3ccc(O)cc23)cc1
AC50 [21]: > 52 µM (inactive)

COC(=O)[C@@H]1COC(c2ccc(F)cc2F)=N1
EC50 [22]: > 100 µM (inactive)

Cc1nn(-c2nc3ccccc3[nH]2)c(O)c1C1OC(=O)c2ccccc21 (stereo unspecified)
Ki [23]: 2 µM (active) | Ki [24]: 0.2 µM (active)

N#C[C@H]1[C@@H](c2ccccc2)[C@@H](CO)N1C(=O)Nc1cccc(F)c1
AC50 [25]: 1.76 µM (active)

COc1ccc(S(=O)(=O)N(C)C[C@H]2Oc3ncc(/C=C/c4ccccc4)cc3C(=O)N([C@H](C)CO)C[C@@H]2C)cc1
AbsAC35 [26]: 45.64 µM

NS(=O)(=O)c1ccc(N/C(S)=N\CCc2ccccc2)cc1
IC50 [27]: 5.84 µM (active) | EC50 [28]: 2.56 µM (active) | IC50 [29]: 7.06 µM (active) | IC50 [30]: > 80 µM (inactive) | EC50 (cells [31]): > 29.9 µM (inactive) | IC50 (cells [32]): > 29.9 µM (inactive) | IC50 [33]: 3.17 µM (active)
